Experimental data from patent US8445474B2 (Knopp Neurosciences, Inc., priority 2006, dated 2013).
Read-outs that look alike come from different tables or passages of the source.

Legend:
in vivo = details: male, beagle, dog
Procedure: (§1) Doses were administered orally by gavage and clinical observations were taken continuously following dosing: hourly for the first four hours, and then twice daily cage-side observations for the duration of the inter-dose or post-dose interval. Observations were made of clinical signs, mortality, injury and availability of food and water. Animals were fasted for 24 hr prior to dosing. Dogs in each group were exposed to only one drug, or the combination; each dose was administered only once, with a subsequent dose administered after a recovery period of 4 days.

rodents [1] = system: rodents
monkeys = details: single oral dose; cited from earlier work
rodents [2] = details: single oral dose, and above; cited from earlier work
dogs = details: single oral dose, and above; cited from earlier work
[3] = target: human cloned dopamine receptor D5 (Homo sapiens, UniProt P21918); details: historic data; cited from earlier work
human subjects = details: cited from earlier work
[4] = Dissolution of exploratory combination capsules in simulated gastric fluid (SGF), chiral HPLC; assay type: physicochemical; details: for Average Concentrations of the enantiomer, Experiments SGF (1) and SGF (2) / Concentration of the enantiomer in SGF (1) Vessel / Concentration of the enantiomer in SGF (2) Vessel: combination capsule in 10 mL SGF pH 1.2
Procedure: Drug Formulation. […] Normal phase, chiral HPLC was used for monitoring the release of R(+) pramipexole and S(−) pramipexole in simulated gastric fluid (SGF).
Dissolution Study. SGF (pH=1.2) was prepared by diluting 1 g of sodium chloride and 7 mL of concentrated HCl to 1 L with HPLC grade water. The dissolution experiment was run as follows: an exploratory combination capsule was placed in 10 mL of SGF and shaken under ambient conditions at 600 RPM for 60 minutes. Aliquots of 100 μL were pulled from the same sample vessel at various time points. The 100 μL samples of SGF solution were evaporated using a nitrogen bleed and heat and the residues were dissolved in the HPLC diluent and filtered through 0.45 μm syringe filters. […] This experiment was performed in duplicate (experiment numbers SGF (1) (see Table 4) and SGF (2) (see Table 5)) and the results are also provided in average values (see Table 6). The tables and figures below summarize the results from these experiments.

[5] = male, beagle, dog, in vivo, 1 study day
[6] = male, beagle, dog, in vivo, 8 study day
[7] = non-naïve male beagle dogs, single oral dose
[8] = 4320 minutes, stored benchtop in clear vial

Chain of human cloned dopamine receptor D5 (P21918 whole entry): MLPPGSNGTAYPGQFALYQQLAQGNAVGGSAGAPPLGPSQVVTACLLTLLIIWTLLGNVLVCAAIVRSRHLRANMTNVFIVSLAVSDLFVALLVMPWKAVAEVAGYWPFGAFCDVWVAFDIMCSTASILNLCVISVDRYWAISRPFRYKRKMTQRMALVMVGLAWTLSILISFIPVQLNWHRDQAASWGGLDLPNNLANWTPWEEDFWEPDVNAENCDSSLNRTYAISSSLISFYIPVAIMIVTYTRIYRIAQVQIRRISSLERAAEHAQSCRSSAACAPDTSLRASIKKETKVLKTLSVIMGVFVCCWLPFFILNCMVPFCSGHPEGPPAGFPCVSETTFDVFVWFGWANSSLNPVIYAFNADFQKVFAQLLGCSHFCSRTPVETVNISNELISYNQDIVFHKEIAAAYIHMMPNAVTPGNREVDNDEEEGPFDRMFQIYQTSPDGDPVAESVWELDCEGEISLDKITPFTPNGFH
Procedure for male beagle dogs: as §1

With `CCCN[C@H]1CCc2nc(N)sc2C1` [S(−) pramipexole] the MTD at 4 days (in vivo) was 4.2 µg/kg, the “human dose equivalent to rodent lethal dose” value (rodents [1]; human equivalent) was 7000 to 12000 µg/kg and the “human dose equivalent to rodent lethal dose” value (rodents [1]; rodents, in vivo) was 500 to 850 mg. The “human dose equivalent to dog MTD” value (male beagle dogs; 70 kg individual) was 0.30 mg, the “human dose equivalent to dog NOAEL” value (male beagle dogs; 70 kg individual) was 0.05 mg and the “human dose equivalent to dog NOAEL” value (male beagle dogs; human equivalent) was 0.7 µg/kg. For the same molecule, the “Feces mucoid (animals affected/total)” value (male beagle dogs; male, beagle, dog, in vivo) was 0/4, the “Feces soft (animals affected/total)” value (male beagle dogs; male, beagle, dog, in vivo) was 0/4 and the “Feces watery (animals affected/total)” value (male beagle dogs; male, beagle, dog, in vivo) was 0/4. The “Lacrimation (animals affected/total)” value (male beagle dogs; male, beagle, dog, in vivo) was 0/4, the “Pupils dilated (animals affected/total)” value (male beagle dogs; male, beagle, dog, in vivo) was 0/4 and the “Skin warm to touch (animals affected/total)” value (male beagle dogs; male, beagle, dog, in vivo) was 0/4. The “Activity decreased (animals affected/total)” value (male beagle dogs; [5]) was 3/4, the “Convulsions-clonic (animals affected/total)” value (male beagle dogs; [5]) was 0/4 and the “Emesis (animals affected/total)” value (male beagle dogs; [5]) was 3/4. The “Salivation (animals affected/total)” value (male beagle dogs; [5]) was 0/4, the “Tremors (animals affected/total)” value (male beagle dogs; [5]) was 1/4 and the “Activity decreased (animals affected/total)” value (male beagle dogs; [6]) was 0/4. The “Emesis (animals affected/total)” value (male beagle dogs; [6]) was 0/4, the “Tremors (animals affected/total)” value (male beagle dogs; [6]) was 0/4 and the MTD (male beagle dogs; [7]) was 7.5 µg/kg. For the same molecule, the NOAEL (male beagle dogs; [7]) was 1.25 µg/kg, the “dose at which major excitation was displayed” value (monkeys) was 3500 µg/kg and the “doses at which deaths occurred” value (rodents [2]) was 70000 to 105000 µg/kg. For the same molecule, the “dose at which vomiting occurred” value (dogs) was at least 0.7 µg/kg, the Ki [3] was over 50 µM and the “dose shown to cause somnolence” value (human subjects) was 1.5 mg. For the same molecule, the “initial, single doses not tolerated” value (human subjects) was “greater than 0.20 milligrams”, the “Average Concentrations of the enantiomer, Experiments SGF (1) and SGF (2)” value (“Average Concentrations of the enantiomer” below) ([4]; 3 minutes) was 0 mg/mL and the “Concentration of the enantiomer in SGF (1) Vessel” value (“Concentration … (1) Vessel” below) ([4]; 3 minutes) was 0 ng/mL. The “Concentration of the enantiomer in SGF (2) Vessel” value (“Concentration … (2) Vessel” below) ([4]; 3 minutes) was 0 ng/mL, the “Average Concentrations of the enantiomer” value ([4]; 4 minutes) was 0 mg/mL and the “Concentration … (1) Vessel” value ([4]; 4 minutes) was 0 ng/mL. The “Concentration … (2) Vessel” value ([4]; 4 minutes) was 0 ng/mL, the “Average Concentrations of the enantiomer” value ([4]; 6 minutes) was 0 mg/mL and the “Concentration … (1) Vessel” value ([4]; 6 minutes) was 0 ng/mL. For the same molecule, the “Concentration … (2) Vessel” value ([4]; 6 minutes) was 0 ng/mL, the “Average Concentrations of the enantiomer” value ([4]; 8 minutes) was 0 mg/mL and the “Concentration … (1) Vessel” value ([4]; 8 minutes) was 0 ng/mL. For the same molecule, the “Concentration … (2) Vessel” value ([4]; 8 minutes) was 0 ng/mL, the “Average Concentrations of the enantiomer” value ([4]; 10 minutes) was 0.003489 mg/mL and the “Concentration … (1) Vessel” value ([4]; 10 minutes) was 6978 ng/mL. For the same molecule, the “Concentration … (2) Vessel” value ([4]; 10 minutes) was 0 ng/mL, the “Average Concentrations of the enantiomer” value ([4]; 11 minutes) was 0.00738 mg/mL and the “Concentration … (1) Vessel” value ([4]; 11 minutes) was 8956 ng/mL. The “Concentration … (2) Vessel” value ([4]; 11 minutes) was 5803 ng/mL, the “Average Concentrations of the enantiomer” value ([4]; 12 minutes) was 0.009645 mg/mL and the “Concentration … (1) Vessel” value ([4]; 12 minutes) was 10830 ng/mL. The “Concentration … (2) Vessel” value ([4]; 12 minutes) was 8460 ng/mL, the “Average Concentrations of the enantiomer” value ([4]; 14 minutes) was 0.015 mg/mL and the “Concentration … (1) Vessel” value ([4]; 14 minutes) was 15340 ng/mL. The “Concentration … (2) Vessel” value ([4]; 14 minutes) was 14660 ng/mL, the “Average Concentrations of the enantiomer” value ([4]; 15 minutes) was 0.01769 mg/mL and the “Concentration … (1) Vessel” value ([4]; 15 minutes) was 17690 ng/mL. For the same molecule, the “Concentration … (2) Vessel” value ([4]; 15 minutes) was 17700 ng/mL, the “Average Concentrations of the enantiomer” value ([4]; 17 minutes) was 0.02176 mg/mL and the “Concentration … (1) Vessel” value ([4]; 17 minutes) was 21570 ng/mL. For the same molecule, the “Concentration … (2) Vessel” value ([4]; 17 minutes) was 21960 ng/mL, the “Average Concentrations of the enantiomer” value ([4]; 18 minutes) was 0.02294 mg/mL and the “Concentration … (1) Vessel” value ([4]; 18 minutes) was 22230 ng/mL. For the same molecule, the “Concentration … (2) Vessel” value ([4]; 18 minutes) was 23650 ng/mL, the “Average Concentrations of the enantiomer” value ([4]; 20 minutes) was 0.028 mg/mL and the “Concentration … (1) Vessel” value ([4]; 20 minutes) was 27330 ng/mL. The “Concentration … (2) Vessel” value ([4]; 20 minutes) was 28670 ng/mL, the “Average Concentrations of the enantiomer” value ([4]; 25 minutes) was 0.03742 mg/mL and the “Concentration … (1) Vessel” value ([4]; 25 minutes) was 37640 ng/mL. The “Concentration … (2) Vessel” value ([4]; 25 minutes) was 37210 ng/mL, the “Average Concentrations of the enantiomer” value ([4]; 30 minutes) was 0.04566 mg/mL and the “Concentration … (1) Vessel” value ([4]; 30 minutes) was 48900 ng/mL. The “Concentration … (2) Vessel” value ([4]; 30 minutes) was 42420 ng/mL, the “Average Concentrations of the enantiomer” value ([4]; 60 minutes) was 0.05654 mg/mL and the “Concentration … (1) Vessel” value ([4]; 60 minutes) was 51970 ng/mL. The “Concentration … (2) Vessel” value ([4]; 60 minutes) was 61100 ng/mL, the “Average Concentrations of the enantiomer” value [4, 8] was 0.09309 mg/mL and the “Concentration … (1) Vessel” value [4, 8] was 93670 ng/mL. For the same molecule, the “Concentration … (2) Vessel” value [4, 8] was 92500 ng/mL and the “course of release from the capsule” value ([4]; SGF pH 1.2, 60 minutes) was “did not go to completion after one hour”.
